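Step 1: Grow cells in 96-well plates. Step 2: Expose to compound for 48 hours at 5 concentrations. Step 3: Interpolate endpoints linearly; if unreached, use highest concentration. Here, GI50 denotes the concentration required for 50% inhibition of growth.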 Calls of active or inactive are those of the source. Rule as the data show it: active = GI50 up to about 1.1 µM and inactive = higher.
Legend:
Experiment in all cases: NCI anticancer screen, dose series, 48 h
SK-MEL-28 = test system: SK-MEL-28
SNB-19 = test system: SNB-19
HCC 2998 = test system: HCC 2998
SK-OV-3 = test system: SK-OV-3
HCT-116 = test system: HCT-116
NCI-H226 = test system: NCI-H226
ACHN = test system: ACHN
HOP-92 = test system: HOP-92
Malme-3M = test system: Malme-3M
K562 = test system: K562
SF-539 = test system: SF-539
UACC-257 = test system: UACC-257
SF-295 = test system: SF-295
SK-MEL-5 = test system: SK-MEL-5
COLO 205 = test system: COLO 205
SR = test system: SR
CCRF-CEM = test system: CCRF-CEM
HCT-15 = test system: HCT-15
OVCAR-8 = test system: OVCAR-8
HT-29 = test system: HT-29

In the case of NC(S)=Nc1cc(Cl)ccc1Cl, the GI50 (SK-MEL-28) was > 100 µM (inactive), the GI50 (SNB-19) was > 100 µM (inactive) and the GI50 (HCC 2998) was > 100 µM (inactive). The GI50 (SK-OV-3) was > 100 µM (inactive), the GI50 (HCT-116) was > 100 µM (inactive) and the GI50 (NCI-H226) was > 100 µM (inactive). For the same molecule, the GI50 (ACHN) was > 100 µM (inactive), the GI50 (HOP-92) was 85.1 µM (inactive) and the GI50 (Malme-3M) was > 100 µM (inactive). For the same molecule, the GI50 (K562) was > 100 µM (inactive), the GI50 (SF-539) was > 100 µM (inactive) and the GI50 (UACC-257) was > 100 µM (inactive). The GI50 (SF-295) was > 100 µM (inactive), the GI50 (SK-MEL-5) was > 100 µM (inactive) and the GI50 (COLO 205) was > 100 µM (inactive). The GI50 (SR) was > 100 µM (inactive), the GI50 (CCRF-CEM) was > 100 µM (inactive) and the GI50 (HCT-15) was greater than 100 µM. The GI50 (OVCAR-8) was 62.1 µM (inactive) and the GI50 (HT-29) was > 100 µM (inactive).

CC(=O)Nc1ccc(C(=O)NN2C(=O)C(Cl)C2/C=C/c2ccccc2)cc1 (configuration not stated) was tested, and the GI50 (SK-MEL-28) was > 100 µM (inactive), the GI50 (SNB-19) was > 100 µM (inactive) and the GI50 (HCC 2998) was > 100 µM (inactive). The GI50 (SK-OV-3) was > 100 µM (inactive), the GI50 (HCT-116) was > 100 µM (inactive) and the GI50 (NCI-H226) was > 100 µM (inactive). For the same molecule, the GI50 (ACHN) was > 100 µM (inactive), the GI50 (HOP-92) was > 100 µM (inactive) and the GI50 (Malme-3M) was > 100 µM (inactive). For the same molecule, the GI50 (K562) was > 100 µM (inactive), the GI50 (SF-539) was > 100 µM (inactive) and the GI50 (UACC-257) was > 100 µM (inactive). The GI50 (SF-295) was > 100 µM (inactive), the GI50 (SK-MEL-5) was > 100 µM (inactive) and the GI50 (COLO 205) was > 100 µM (inactive). The GI50 (SR) was > 100 µM (inactive), the GI50 (CCRF-CEM) was > 100 µM (inactive) and the GI50 (OVCAR-8) was > 100 µM (inactive). The GI50 (HT-29) was > 100 µM (inactive).

In the case of COc1ccc(OC)c(C(=O)/C=C/c2cc(O)c(O)cc2F)c1, the GI50 (SK-MEL-28) was 1.85 µM (inactive), the GI50 (SNB-19) was 0.619 µM (active) and the GI50 (HCC 2998) was 0.538 µM (active). The GI50 (SK-OV-3) was 3.35 µM (inactive), the GI50 (HCT-116) was 0.47 µM (active) and the GI50 (NCI-H226) was 5.24 µM (inactive). The GI50 (ACHN) was 2.27 µM (inactive), the GI50 (HOP-92) was 10.1 µM (inactive) and the GI50 (Malme-3M) was 2.47 µM (inactive). The GI50 (K562) was 0.356 µM (active), the GI50 (SF-539) was 0.258 µM (active) and the GI50 (UACC-257) was 3.1 µM (inactive). The GI50 (SF-295) was 1.33 µM (inactive), the GI50 (SK-MEL-5) was 0.558 µM (active) and the GI50 (COLO 205) was 15.5 µM (inactive). For the same molecule, the GI50 (SR) was 0.227 µM (active), the GI50 (CCRF-CEM) was 0.41 µM (active) and the GI50 (HCT-15) was 0.076 µM. For the same molecule, the GI50 (OVCAR-8) was 2.14 µM (inactive) and the GI50 (HT-29) was 7.14 µM (inactive).

In the case of CC(C)(C)[Si](OC1CC(n2cnc3c(N)ncnc32)OC1CO)(c1ccccc1)c1ccccc1 (configuration not stated), the GI50 (SK-MEL-28) was 21.5 µM (inactive), the GI50 (SNB-19) was 20.2 µM (inactive) and the GI50 (HCC 2998) was 67.5 µM (inactive). The GI50 (SK-OV-3) was 14.9 µM (inactive), the GI50 (HCT-116) was 17.2 µM (inactive) and the GI50 (NCI-H226) was 12.4 µM (inactive). For the same molecule, the GI50 (ACHN) was 13.6 µM (inactive), the GI50 (HOP-92) was 20.2 µM (inactive) and the GI50 (Malme-3M) was 19 µM (inactive). The GI50 (K562) was 17.1 µM (inactive), the GI50 (SF-539) was 20.2 µM (inactive) and the GI50 (UACC-257) was 66.5 µM (inactive). For the same molecule, the GI50 (SF-295) was 15 µM (inactive), the GI50 (COLO 205) was 30.3 µM (inactive) and the GI50 (SR) was 14.5 µM (inactive). The GI50 (CCRF-CEM) was 12.9 µM (inactive), the GI50 (HCT-15) was greater than 10 µM and the GI50 (OVCAR-8) was 18.9 µM (inactive). The GI50 (HT-29) was 16.1 µM (inactive).

For Cn1c(=O)[nH]c2c(c1=O)C(=O)CN2, the GI50 (SK-MEL-28) was > 100 µM (inactive), the GI50 (SNB-19) was > 100 µM (inactive) and the GI50 (HCC 2998) was > 100 µM (inactive). For the same molecule, the GI50 (SK-OV-3) was > 100 µM (inactive), the GI50 (HCT-116) was > 100 µM (inactive) and the GI50 (NCI-H226) was 36.2 µM (inactive). For the same molecule, the GI50 (ACHN) was > 10 µM (inactive), the GI50 (HOP-92) was < 0.01 µM (active) and the GI50 (Malme-3M) was > 100 µM (inactive). The GI50 (K562) was > 100 µM (inactive), the GI50 (SF-539) was > 100 µM (inactive) and the GI50 (UACC-257) was > 100 µM (inactive). For the same molecule, the GI50 (SF-295) was > 100 µM (inactive), the GI50 (SK-MEL-5) was > 100 µM (inactive) and the GI50 (COLO 205) was > 100 µM (inactive). The GI50 (SR) was > 100 µM (inactive), the GI50 (CCRF-CEM) was > 100 µM (inactive) and the GI50 (HCT-15) was greater than 100 µM. For the same molecule, the GI50 (OVCAR-8) was > 100 µM (inactive).

For CN(C)c1ccc(C2ON=C(c3ccccc3)N2C23CC4CC(CC(C4)C2)C3)cc1 (configuration not stated), the GI50 (SK-MEL-28) was > 10 µM (inactive), the GI50 (SNB-19) was > 10 µM (inactive) and the GI50 (HCC 2998) was > 10 µM (inactive). The GI50 (SK-OV-3) was > 10 µM (inactive), the GI50 (HCT-116) was > 10 µM (inactive) and the GI50 (NCI-H226) was > 10 µM (inactive). The GI50 (ACHN) was > 10 µM (inactive), the GI50 (HOP-92) was > 10 µM (inactive) and the GI50 (Malme-3M) was > 10 µM (inactive). For the same molecule, the GI50 (K562) was 9.12 µM (inactive), the GI50 (SF-539) was > 10 µM (inactive) and the GI50 (UACC-257) was > 10 µM (inactive). For the same molecule, the GI50 (SF-295) was > 10 µM (inactive), the GI50 (SK-MEL-5) was > 10 µM (inactive) and the GI50 (COLO 205) was > 10 µM (inactive). For the same molecule, the GI50 (SR) was 8.02 µM (inactive), the GI50 (CCRF-CEM) was > 10 µM (inactive) and the GI50 (HCT-15) was greater than 10 µM. The GI50 (OVCAR-8) was > 10 µM (inactive) and the GI50 (HT-29) was > 10 µM (inactive).

— ChEMBL document CHEMBL1201862, “PubChem BioAssay data set” (2004)
